The target in one data set is T1, JAK1 (Homo sapiens, UniProt P23458).
T1 construct: purchased Carna Biosciences
Description: JAK1 kinase activity, microfluidic assay (Caliper EZ Reader II). Conditions: JAK1 5 nM, 1 mM ATP. It is filed as biochemical. As to the method: (§1) Testing for JAK1, JAK2 and TYK2 Kinase Activities
(§2) JAK activity was determined in the reaction buffer 50 mM HEPES, 0.01% Brij35, 10 mM MgCl2, 2 mM DTT by a microfluidic assay. The phosphorylation of a FAM labeled peptide substrate was monitored in the Caliper EZ Reader II (Perkin Elmer). The assay condition for each batch of enzyme (Carna Biosciences) was optimized to obtain 10% conversion rate of peptide substrate.
(§3) The test compounds were dissolved in DMSO to a stock concentration of 10 mM. Three-fold serially diluted compounds with top concentration of 5 μM were pre-incubated with JAK1, JAK2 or TYK2 for 10 min at ambient temperature. The final DMSO concentration of assay mixture was 1%. […] The reaction was stopped by adding 50 mM EDTA.
(§4) The percent inhibition was calculated by the following formula:
(§5) [formula] • wherein • Conversion %_max=the conversion rate in the positive well without addition of compound • Conversion %_sample=the conversion rate of test compounds • Conversion %_min=the conversion rate in the well without addition of enzyme
(§6) The dose-response (percent inhibition) curve was plotted and IC50 values were determined by GraphPad software.

The target in a further data set is T2, JAK2 (Homo sapiens, UniProt O60674).
T2 construct: purchased Carna Biosciences
T2 sequence (O60674 whole entry): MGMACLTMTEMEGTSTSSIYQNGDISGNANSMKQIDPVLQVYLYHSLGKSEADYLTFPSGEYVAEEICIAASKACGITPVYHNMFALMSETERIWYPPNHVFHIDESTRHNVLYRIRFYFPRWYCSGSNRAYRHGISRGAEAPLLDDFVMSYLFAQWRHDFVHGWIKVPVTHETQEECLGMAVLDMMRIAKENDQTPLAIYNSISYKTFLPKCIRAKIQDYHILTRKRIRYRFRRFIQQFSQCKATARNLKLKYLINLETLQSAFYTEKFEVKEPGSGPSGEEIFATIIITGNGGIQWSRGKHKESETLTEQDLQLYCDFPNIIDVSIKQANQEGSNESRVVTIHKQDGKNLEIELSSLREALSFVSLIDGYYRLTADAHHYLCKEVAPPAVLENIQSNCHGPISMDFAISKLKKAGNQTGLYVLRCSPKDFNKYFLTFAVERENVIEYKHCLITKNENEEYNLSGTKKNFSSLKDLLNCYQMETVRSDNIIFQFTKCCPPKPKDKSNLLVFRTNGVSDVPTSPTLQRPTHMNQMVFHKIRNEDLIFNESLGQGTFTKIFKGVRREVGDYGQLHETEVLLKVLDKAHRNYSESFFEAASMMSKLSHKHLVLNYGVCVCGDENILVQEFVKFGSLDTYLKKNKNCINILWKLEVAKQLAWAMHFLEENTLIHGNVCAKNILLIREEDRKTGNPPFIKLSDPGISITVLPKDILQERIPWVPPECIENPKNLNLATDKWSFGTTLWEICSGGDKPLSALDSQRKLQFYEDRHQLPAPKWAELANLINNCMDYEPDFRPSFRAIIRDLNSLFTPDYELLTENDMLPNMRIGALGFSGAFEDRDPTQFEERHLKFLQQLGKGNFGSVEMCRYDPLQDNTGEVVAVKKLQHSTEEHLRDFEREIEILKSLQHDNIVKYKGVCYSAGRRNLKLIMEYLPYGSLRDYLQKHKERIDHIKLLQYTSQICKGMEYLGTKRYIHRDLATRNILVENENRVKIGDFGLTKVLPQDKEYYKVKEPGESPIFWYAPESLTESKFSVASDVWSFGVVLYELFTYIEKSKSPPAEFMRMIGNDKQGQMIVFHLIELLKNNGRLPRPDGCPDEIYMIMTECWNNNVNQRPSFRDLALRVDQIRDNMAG
Kind of data set: JAK2 kinase activity, microfluidic assay (Caliper EZ Reader II). The class given is biochemical. Conditions: JAK2 0.125 nM, 1 mM ATP. As to the method: as §1, §2, §3, §4, §5, §6

The target of another data set is T3, TYK2 (Homo sapiens, UniProt P29597).
T3 construct: purchased Carna Biosciences
T3 sequence (P29597 whole entry): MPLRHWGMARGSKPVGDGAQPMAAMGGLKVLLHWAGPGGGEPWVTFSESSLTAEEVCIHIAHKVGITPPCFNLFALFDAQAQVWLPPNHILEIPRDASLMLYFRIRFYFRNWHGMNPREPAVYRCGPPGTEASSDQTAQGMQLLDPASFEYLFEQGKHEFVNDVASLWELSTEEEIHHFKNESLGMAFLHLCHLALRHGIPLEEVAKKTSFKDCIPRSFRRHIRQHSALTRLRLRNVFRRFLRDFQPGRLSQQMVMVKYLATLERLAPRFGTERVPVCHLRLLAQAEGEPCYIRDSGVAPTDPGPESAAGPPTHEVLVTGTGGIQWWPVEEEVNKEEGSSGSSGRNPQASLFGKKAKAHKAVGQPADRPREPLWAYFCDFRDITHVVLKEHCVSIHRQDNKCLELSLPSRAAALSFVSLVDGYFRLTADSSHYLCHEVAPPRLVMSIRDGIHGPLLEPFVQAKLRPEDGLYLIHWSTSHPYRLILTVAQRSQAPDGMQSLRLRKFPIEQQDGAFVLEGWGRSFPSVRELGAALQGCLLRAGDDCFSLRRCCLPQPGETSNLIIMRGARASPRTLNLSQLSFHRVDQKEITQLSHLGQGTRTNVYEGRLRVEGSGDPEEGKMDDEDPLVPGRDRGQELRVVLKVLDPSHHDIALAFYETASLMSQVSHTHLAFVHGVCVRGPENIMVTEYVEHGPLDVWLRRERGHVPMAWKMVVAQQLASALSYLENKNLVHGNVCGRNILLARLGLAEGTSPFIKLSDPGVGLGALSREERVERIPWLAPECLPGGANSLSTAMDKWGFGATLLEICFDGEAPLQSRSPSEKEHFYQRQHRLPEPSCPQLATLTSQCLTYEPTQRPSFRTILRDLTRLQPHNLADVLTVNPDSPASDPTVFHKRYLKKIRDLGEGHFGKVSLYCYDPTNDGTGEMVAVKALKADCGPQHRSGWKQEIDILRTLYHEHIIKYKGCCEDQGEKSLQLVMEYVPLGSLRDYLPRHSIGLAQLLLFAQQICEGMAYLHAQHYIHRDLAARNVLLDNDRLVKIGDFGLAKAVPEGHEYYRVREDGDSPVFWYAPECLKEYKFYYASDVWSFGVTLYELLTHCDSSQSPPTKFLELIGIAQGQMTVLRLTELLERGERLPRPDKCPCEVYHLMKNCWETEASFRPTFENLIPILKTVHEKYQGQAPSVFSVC
Description: TYK2 kinase activity, microfluidic assay (Caliper EZ Reader II). It is filed as biochemical. Conditions: TYK2 1 nM, 1 mM ATP. The method, boiled down:
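Human JAK1, JAK2 or TYK2 enzyme was used in 50 mM HEPES, 10 mM MgCl2, 2 mM DTT and 0.01% Brij35, tuned to 10% conversion of a FAM-labelled peptide. Threefold dilutions of compound (top 5 µM, 1% DMSO) were pre-incubated with enzyme for 10 min, and reactions were stopped with EDTA. Phosphorylation was read by microfluidic mobility shift, and IC50 came from percent-inhibition curves.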

The target of data set [1] is T4, Ba/F3-FL-TYK2-P760L cells (Homo sapiens, UniProt P29597, P760L, cells depend on it).
T4 construct: BaF3-FL-T2P760L (nM)
T4 sequence (P29597 whole entry P760L): as the sequence (P29597 whole entry) above, with P760L counted along it
Description: Anti-proliferative assay, Ba/F3-FL-TYK2-P760L cells (Cell-Titer Glo). The class given is cell-based. Conditions: 72 h, read-out: BaF3-FL-T2P760L IC50. Summed up: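 Ba/F3 cells made IL-3-independent by TEL-fused or full-length mutant JAK-family kinases, seeded at 2000/well and dosed after 24 h with 9 three-fold dilutions topping at 20 μM. Viability after 72 h at 37 °C, 5% CO2 by Cell-Titer Glo ATP luminescence.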

The target in another data set is T5, Ba/F3-TEL-TYK2 cells (Homo sapiens, UniProt P29597).
T5 construct: fused on or other part: Dimerization domain of TEL (ETV6) fused to the TYK2 kinase domain; P41212 (Transcription factor ETV6)
T5 sequence (P29597 whole entry, change not shown, the tested form may be a part): as the sequence (P29597 whole entry) above
Description: Anti-proliferative assay, Ba/F3-TEL-TYK2 cells (Cell-Titer Glo). The class given is cell-based. Conditions: 72 h, read-out: BaF3-TEL-TYK2 IC50. As to the method:
(§7) Anti-Proliferative Assay Dimerization domain of Tel protein fused with JAK kinase domain was permanently transduced into Ba/F3 cells, whose proliferation is dependent on JAK activity in the absence of IL-3 induction. These engineered Ba/F3 cells (Ba/F3-FL-TYK2-[…], Ba/F3-TEL-TYK2 and Ba/F3-TEL-JAK2) were used to monitor JAK inhibitory activities of the compounds in the cellular. […] Cells were seeded at 2000/well of white flat bottom 96-well plates. The well containing medium only was used as background control. After 24 h growth, cells were treated with compounds. The test compounds were dissolved in DMSO to a stock concentration of 20 mM. 3-fold serially diluted compounds for 9 concentrations with top concentration of 20 μM was added into the each well. […] The cells continued to grow at 37° C. in 5% CO2 for 72 h after compound treatment. The viability was measured by cellular ATP determination using the Cell-Titer Glo luciferase reagent (Promega). The Luminescence value was recorded by a multi-label reader Envision (PerkinElmer).

The target of a further data set is T6, Ba/F3-TEL-JAK2 cells (Homo sapiens, UniProt O60674).
T6 construct: fused on or other part: Dimerization domain of TEL (ETV6) fused to the JAK2 kinase domain; P41212 (Transcription factor ETV6)
T6 sequence (O60674 whole entry, change not shown, the tested form may be a part): as the sequence (O60674 whole entry) above
Kind of data set: Anti-proliferative assay, Ba/F3-TEL-JAK2 cells (Cell-Titer Glo). It is filed as cell-based. Conditions: 72 h, read-out: BaF3-TEL-JAK2 IC50. Here is the method:
as §7

Data set [2] can be described thus: Microsomal metabolic stability assay. It is filed as in vitro ADME. Conditions: pH 7.4, 0.5 mg/mL protein, 1 μM compound. Summed up:
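Test article at 1 μM with 0.5 mg/mL microsomal protein and 2 mM NADPH, in 100 mM potassium phosphate pH 7.4 with 1.0 mM EDTA at 37 °C. Sampled at 0–45 min and quantified by LC/MS/MS. T1/2 from the slope of ln % remaining vs time.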

A further data set addresses T7, TYK2-JH2 domain (Homo sapiens, UniProt P29597).
T7 construct: IC50 on JH2 domain activity (nM)
Kind of data set: Binding activity test for JH2 domain of TYK2 (Tb-antibody/tracer FRET). Summed up:
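Compounds tested as 11-point 3-fold serial dilutions against the JH2 domain in a Tb-antibody/tracer FRET binding format. Plates incubated 60 min at 25° C, then overnight at 4° C, before FRET reading.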

Data set [3] in a line: Plasma protein binding by equilibrium dialysis. It is filed as in vitro ADME. Conditions: human plasma, equilibrium dialysis 5 hours at 37° C.; read-out: % Bound (human) (converted). Summed up: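 Compound spiked into plasma at 0.2 and 2 μM was dialyzed against PBS for 5 h at 37° C with shaking, in duplicate. Plasma and buffer chambers were matrix-matched, protein-precipitated and analysed by LC-MS/MS to derive % unbound, % bound and % recovery.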

Where [4] appears, read: dog liver microsomes, read-out: Dog LM Clint.
Setting [5] is: dog liver microsomes, read-out: Dog LM T½.
The mark [6] stands for this setting: human liver microsomes, read-out: Human LM Clint.
Setting [7] is: human liver microsomes, read-out: Human LM T½.
Where [8] appears, read: rat liver microsomes, read-out: Rat LM Clint.
Where [9] appears, read: rat liver microsomes, read-out: Rat LM T½.

The text below walks through data of patent US20250115597A1, “TYK2 INHIBITORS AND COMPOSITIONS AND METHODS THEREOF” (LYNK PHARMACEUTICALS CO. LTD., priority 2021, published 2025).

In general, IC50 refers to the concentration that inhibits the measured activity by half. Low readings indicate inhibition by little substance, high ones a need for much substance.

Like-named read-outs stand apart in the source and are kept apart here.

T1 sequence (P23458 whole entry): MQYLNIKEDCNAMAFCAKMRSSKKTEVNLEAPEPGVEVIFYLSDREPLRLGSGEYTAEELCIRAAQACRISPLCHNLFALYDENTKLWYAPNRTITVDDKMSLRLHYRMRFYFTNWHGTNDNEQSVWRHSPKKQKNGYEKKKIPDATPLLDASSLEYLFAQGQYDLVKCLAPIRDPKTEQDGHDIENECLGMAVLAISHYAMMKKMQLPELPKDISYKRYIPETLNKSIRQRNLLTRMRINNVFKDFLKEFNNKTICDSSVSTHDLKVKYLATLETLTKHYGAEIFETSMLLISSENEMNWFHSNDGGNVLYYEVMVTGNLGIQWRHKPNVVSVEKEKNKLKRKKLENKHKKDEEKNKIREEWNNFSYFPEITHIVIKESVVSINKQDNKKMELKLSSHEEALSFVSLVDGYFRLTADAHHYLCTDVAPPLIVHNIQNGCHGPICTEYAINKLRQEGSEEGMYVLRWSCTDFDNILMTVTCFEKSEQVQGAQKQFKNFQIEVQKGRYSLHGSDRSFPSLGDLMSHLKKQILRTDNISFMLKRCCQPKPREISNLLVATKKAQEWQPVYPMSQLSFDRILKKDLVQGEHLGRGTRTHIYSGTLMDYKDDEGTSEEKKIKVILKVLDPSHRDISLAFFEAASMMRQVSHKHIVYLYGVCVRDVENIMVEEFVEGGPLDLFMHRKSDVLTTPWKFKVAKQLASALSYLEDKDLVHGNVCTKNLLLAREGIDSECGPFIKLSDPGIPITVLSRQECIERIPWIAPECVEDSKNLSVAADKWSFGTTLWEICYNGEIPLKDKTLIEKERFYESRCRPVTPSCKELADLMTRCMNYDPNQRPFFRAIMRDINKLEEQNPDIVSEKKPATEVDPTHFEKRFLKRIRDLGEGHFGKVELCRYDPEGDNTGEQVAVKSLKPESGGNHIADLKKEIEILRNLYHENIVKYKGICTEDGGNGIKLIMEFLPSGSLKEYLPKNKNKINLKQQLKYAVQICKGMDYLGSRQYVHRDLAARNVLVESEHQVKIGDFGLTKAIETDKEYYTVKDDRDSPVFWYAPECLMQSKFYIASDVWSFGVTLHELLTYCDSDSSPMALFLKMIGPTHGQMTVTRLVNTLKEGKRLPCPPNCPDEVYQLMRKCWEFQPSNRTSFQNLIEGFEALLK
T7 sequence (P29597 589-875 limits assumed): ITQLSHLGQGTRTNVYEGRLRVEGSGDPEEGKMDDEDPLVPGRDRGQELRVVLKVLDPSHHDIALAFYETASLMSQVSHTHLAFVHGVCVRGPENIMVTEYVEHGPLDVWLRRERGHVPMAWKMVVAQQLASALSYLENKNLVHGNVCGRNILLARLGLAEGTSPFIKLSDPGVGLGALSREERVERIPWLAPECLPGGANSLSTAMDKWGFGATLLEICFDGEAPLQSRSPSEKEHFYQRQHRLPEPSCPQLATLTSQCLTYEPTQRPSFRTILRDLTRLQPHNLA

For `[2H]C([2H])([2H])NC(=O)c1cnc(Nc2ccc(F)cc2)nc1Nc1cccc(-c2ncn(C)n2)c1OC` [Example 20, 2-(4-Fluoroanilino)-4-[2-methoxy-3-(1-methyl-1,2,4-triazol-3-yl)anilino]-N-(trideuteriomethyl)pyrimidine-5-carboxamide], the values for the half-maximal inhibitory concentration (IC50) on JAK1, against JAK2 and against TYK2 were greater than 5 µM, 0.173 µM and greater than 5 µM, respectively. For the same compound, the GI50 came to 0.078 µM in data set [1], 2.53 µM on Ba/F3-TEL-TYK2 cells and 1.18 µM on Ba/F3-TEL-JAK2 cells. Further, the microsomal CLint at 1 μM in data set [2] (setting [4]) was 101 µL/min/mg; in [2] (setting [6]), 13.3 µL/min/mg; in [2] (setting [8]) it was 45.7 µL/min/mg. Besides, the half-life at 1 μM worked out at 0.572 h in [2] (setting [5]), 4.36 h in data set [2] (setting [7]) and 1.26 h in data set [2] (setting [9]).

As for `CNC(=O)c1nnc2cc1Nc1cc(cc(-c3ncn(C)n3)c1OC)COCc1cccc(n1)N2` [Example 35, 10-Methoxy-N-methyl-11-(1-methyl-1H-1,2,4-triazol-3-yl)-15-oxa-2,4,5,8,21-pentaazatetracyclo[15.3.1.1^{3,7}.1^{9,13}]tricosa-1(21),3,5,7(23),9(22),10,12,17,19-nonaene-6-carboxamide], the IC50 against JAK1, on JAK2 and on TYK2 was greater than 5 µM in each case. Besides, the GI50 was 0.0482 µM in data set [1], greater than 20 µM at Ba/F3-TEL-TYK2 cells and 0.789 µM on Ba/F3-TEL-JAK2 cells. Moreover, the microsomal CLint at 1 μM was less than 18.6 µL/min/mg in data set [2] (setting [4]), 21.2 µL/min/mg in data set [2] (setting [6]) and 63.8 µL/min/mg in [2] (setting [8]). Moreover, the half-life at 1 μM in data set [2] (setting [5]) was greater than 3.1 h; in data set [2] (setting [7]), 2.72 h; in data set [2] (setting [9]), 0.905 h.

Turning to `CNC(=O)c1cnc(NC(=O)C2CC2)cc1Nc1cn(C)c2c(F)cn(C)c(=O)c12` [Example 14, 6-(Cyclopropanecarboxamido)-4-((7-fluoro-1,5-dimethyl-4-oxo-4,5-dihydro-1H-pyrrolo[3,2-c]pyridin-3-yl)amino)-N-methylnicotinamide], the half-maximal inhibitory concentration (IC50) at JAK1, on JAK2 and against TYK2 was greater than 5 µM throughout. Besides, the values for the GI50 (in data set [1]; at Ba/F3-TEL-TYK2 cells; on Ba/F3-TEL-JAK2 cells) were 0.33 µM, greater than 20 µM and greater than 20 µM, respectively. In addition, the microsomal CLint at 1 μM amounted to 6.43 µL/min/mg in data set [2] (setting [4]), 23.6 µL/min/mg in [2] (setting [6]) and 101 µL/min/mg in data set [2] (setting [8]). The half-life at 1 μM was found to be 3.59 h in data set [2] (setting [5]), 0.98 h in data set [2] (setting [7]) and 0.228 h in data set [2] (setting [9]).

Take `[2H]C([2H])([2H])NC(=O)c1cnc(Nc2cccc(C#N)c2)nc1Nc1cccc(-c2ncn(C)n2)c1OC` [Example 19, 2-(3-Cyanoanilino)-4-[2-methoxy-3-(1-methyl-1,2,4-triazol-3-yl)anilino]-N-(trideuteriomethyl)pyrimidine-5-carboxamide]: the IC50 on TYK2-JH2 domain was 0.098 nM; at JAK1, greater than 5 µM; at JAK2, greater than 5 µM; against TYK2, greater than 5 µM. The GI50 in data set [1] was 0.0349 µM; on Ba/F3-TEL-TYK2 cells it was greater than 20 µM; on Ba/F3-TEL-JAK2 cells, 4.96 µM. The microsomal CLint at 1 μM in [2] (setting [4]) was found to be 71.2 µL/min/mg; in data set [2] (setting [6]), 4.46 µL/min/mg; in data set [2] (setting [8]), 43.6 µL/min/mg. In addition, the half-life at 1 μM was 0.812 h in [2] (setting [5]), 12.9 h in data set [2] (setting [7]) and 1.32 h in data set [2] (setting [9]). In addition, in data set [3], the fraction unbound at 5 h is 0.038.

Take `CCn1ccc2scc(Nc3cc(Nc4ccc(F)cn4)ncc3C(=O)NC)c2c1=O` [Example 18, 4-((5-Ethyl-4-oxo-4,5-dihydrothieno[3,2-c]pyridin-3-yl)amino)-6-((5-fluoropyridin-2-yl)amino)-N-methylnicotinamide]: the IC50 against JAK1, on JAK2 and on TYK2 was greater than 5 µM each time. The GI50 in [1] was 0.0484 µM; at Ba/F3-TEL-TYK2 cells, greater than 20 µM; at Ba/F3-TEL-JAK2 cells it was greater than 20 µM.

Take `CCn1ccc2c(c(Nc3cc(Nc4ccc(F)cn4)ncc3C(=O)NC)cn2C)c1=O` [Example 10, 4-((5-Ethyl-1-methyl-4-oxo-4,5-dihydro-1H-pyrrolo[3,2-c]pyridin-3-yl)amino)-6-((5-fluoropyridin-2-yl)amino)-N-methylnicotinamide]: the IC50 on JAK1, on JAK2 and against TYK2 was greater than 5 µM in each case. In addition, the GI50 was 0.0545 µM in data set [1], 4.03 µM at Ba/F3-TEL-TYK2 cells and 3.73 µM at Ba/F3-TEL-JAK2 cells. For the same compound, the microsomal CLint at 1 μM in data set [2] (setting [4]) came out at 27.1 µL/min/mg; in data set [2] (setting [6]) it was 88.3 µL/min/mg; in [2] (setting [8]), 137 µL/min/mg. Further, the half-life at 1 μM in [2] (setting [5]) was found to be 2.13 h; in data set [2] (setting [7]) it was 0.654 h; in data set [2] (setting [9]) it was 0.422 h.
